Test results taken from US10155259B2 (Merck Sharp & Dohme B.V., priority 2011, dated 2018).

molecular target: T1, human FSH receptor (Homo sapiens, UniProt P23945); experiment: Antagonistic activity of compounds at the human FSH receptor expressed in CHO cells (CRE-luciferase reporter); type: cell-based; conditions: CHO cells stably transfected with human FSH receptor and CRE/luciferase reporter; together with 49 μM recFSH; 4 hours incubation; 1% DMSO; read-out: IC50 (concentration of test compound causing half-maximal inhibition of the maximally attainable inhibition of the luciferase stimulation)
T1 construct: expressed in transfected cells; host or cells: CHO cells, stably transfected; cotransfected with CRE-luciferase reporter
T1 sequence (P23945 18-695): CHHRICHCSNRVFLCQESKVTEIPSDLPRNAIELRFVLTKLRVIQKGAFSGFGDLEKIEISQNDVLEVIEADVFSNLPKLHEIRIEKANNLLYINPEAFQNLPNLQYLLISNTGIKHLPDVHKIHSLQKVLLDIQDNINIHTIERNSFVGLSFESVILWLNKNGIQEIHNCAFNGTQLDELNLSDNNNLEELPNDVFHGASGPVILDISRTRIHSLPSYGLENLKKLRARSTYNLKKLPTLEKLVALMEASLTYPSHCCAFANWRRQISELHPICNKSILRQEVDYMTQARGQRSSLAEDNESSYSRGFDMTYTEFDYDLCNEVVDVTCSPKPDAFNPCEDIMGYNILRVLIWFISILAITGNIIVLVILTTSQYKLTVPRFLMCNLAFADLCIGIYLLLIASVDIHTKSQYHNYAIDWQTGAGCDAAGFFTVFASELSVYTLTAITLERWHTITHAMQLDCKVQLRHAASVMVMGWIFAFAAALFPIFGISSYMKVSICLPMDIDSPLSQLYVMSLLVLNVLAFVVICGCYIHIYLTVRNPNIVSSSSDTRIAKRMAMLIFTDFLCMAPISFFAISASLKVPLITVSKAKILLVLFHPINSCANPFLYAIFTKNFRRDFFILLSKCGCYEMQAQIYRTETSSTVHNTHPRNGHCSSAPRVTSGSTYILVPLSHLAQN
Description: Antagonistic Activity of Compounds at the Human FSH Receptor Expressed in CHO Cells
Antagonistic activity of the compounds at the human FSH receptor was determined in Chinese Hamster Ovary (CHO) cells stably transfected with the human FSH receptor and cotransfected with a cAMP responsive element (CRE)/promotor directing the expression of a firefly luciferase reporter gene. Binding of the compounds to the Gs protein-coupled FSH receptor will result in an increase of cAMP, which in turn will induce an increased transactivation of the luciferase reporter. The cells (7,500 cells/well of a 384 well plate) were incubated in Dulbecco' minimal essential F12 modified medium (Invitrogen), supplemented with 1 μg/ml bovine insulin, 5 μg/ml human apo-transferrin, 100 U/ml penicillin G and 100 μg/ml streptomycin with the test compounds (concentration between 0.316 nM and 10.0 μM) in duplicate together with […] (which, at this concentration in the absence of test compound, induces 80% of the maximal luciferase stimulation) in a humidified atmosphere (95%) at 5-7% CO2 and 37° C. The final concentration of DMSO was 1%. After 4 hours of incubation, plates were allowed to adjust to room temperature for 1 hour. Then, SteadyLite (PerkinElmer) solution was added to the wells and cells were allowed to lyse for at least 1 hour at room temperature. Subsequently, luciferase activity was measured in a luminescence counter. The signal is expressed as counts per second (cps). The IC50 (concentration of test compound causing half-maximal (50%) inhibition of the maximally attainable inhibition of the luciferase stimulation by the compound) and efficacy of the compounds were determined using the software program MathIQ (version 2.3, ID Business Solutions Limited).

Row | Compound | IC50
1 | COc1cc2c(cc1OC(C)C)-c1cc(C(=O)NC(C)(CO)Cc3c[nH]c4ccccc34)c(-c3cccc(F)c3)n1CC2 (stereo not shown) [Example 2] | 100 to 1000 nM
2 | COc1cc2c(cc1OC)-c1c(C)c(C(=O)N[C@@H](CO)Cc3c[nH]c4ccccc34)c(-c3ccccc3)n1CC2 [Example 1, (R)—N-(1-hydroxy-3-(1H-indol-3-yl)propan-2-yl)-8,9-dimethoxy-1-methyl-3-phenyl-5,6-dihydropyrrolo[2,1-a]isoquinoline-2-carboxamide] | 100 to 1000 nM
3 | COc1cc2c(cc1O)-c1cc(C(=O)N[C@@H](CO)Cc3c[nH]c4ccccc34)c(-c3cccc(F)c3)n1CC2 [Example 31, (R)-3-(3-fluorophenyl)-9-hydroxy-N-(1-hydroxy-3-(1H-indol-3-yl)propan-2-yl)-8-methoxy-5,6-dihydropyrrolo[2,1-a]isoquinoline-2-carboxamide] | 100 to 1000 nM
4 | COc1cc2c(cc1OC)-c1nc(C(=O)N[C@@H](CO)Cc3c[nH]c4ccccc34)c(-c3ccccc3F)n1CC2 [Example 67, 3-(2-fluorophenyl)-N—((R)-1-hydroxy-3-(1H-indol-3-yl)propan-2-yl)-8,9-dimethoxy-5,6-dihydroimidazo[2,1-a]isoquinoline-2-carboxamide] | 100 to 1000 nM
5 | C=CCOc1cc2c(cc1OC)CCn1c-2cc(C(=O)N[C@@H](CO)Cc2c[nH]c3ccccc23)c1-c1cccs1 [Example 41] | < 100 nM
6 | COc1cc2c(cc1OC(C)C)-c1cc(C(=O)N[C@@H](CO)Cc3c[nH]c4ccccc34)c(CC(C)C)n1CC2 [Example 22, (R)—N-(1-hydroxy-3-(1H-indol-3-yl)propan-2-yl)-3-isobutyl-9-isopropoxy-8-methoxy-5,6-dihydropyrrolo[2,1-a]isoquinoline-2-carboxamide] | < 100 nM
7 | COc1cc2c(cc1-c1cncnc1)-c1cc(C(=O)N[C@@H](CO)Cc3c[nH]c4ccccc34)c(-c3cccc(F)c3)n1CC2 [Example 50, (R)-3-(3-fluorophenyl)-N-(1-hydroxy-3-(1H-indol-3-yl)propan-2-yl)-8-methoxy-9-(pyrimidin-5-yl)-5,6-dihydropyrrolo[2,1-a]isoquinoline-2-carboxamide] | < 100 nM
8 | COc1cc2c(cc1OC)-c1cc(C(=O)N[C@@H](CO)Cc3c[nH]c4ccccc34)c(-c3ccc([N+](=O)[O-])cc3)n1CC2 [Example 9, (R)—N-(1-hydroxy-3-(1H-indol-3-yl)propan-2-yl)-8,9-dimethoxy-3-(4-nitrophenyl)-5,6-dihydropyrrolo[2,1-a]isoquinoline-2-carboxamide] | 100 to 1000 nM
9 | COc1cc2c(cc1OC(C)C)-c1cc(C(=O)N[C@@H](CO)Cc3c[nH]c4ccccc34)c(C(=O)c3cccs3)n1CC2 [Example 28, (R)—N-(1-hydroxy-3-(1H-indol-3-yl)propan-2-yl)-9-isopropoxy-8-methoxy-3-(thiophene-2-carbonyl)-5,6-dihydropyrrolo[2,1-a]isoquinoline-2-carboxamide] | < 100 nM
10 | COc1cc2c(cc1-c1cnc(N(C)C)nc1)-c1cc(C(=O)N[C@@H](CO)Cc3c[nH]c4ccccc34)c(-c3cccc(F)c3)n1CC2 [Example 51, (R)-9-(2-(dimethylamino)pyrimidin-5-yl)-3-(3-fluorophenyl)-N-(1-hydroxy-3-(1H-indol-3-yl)propan-2-yl)-8-methoxy-5,6-dihydropyrrolo[2,1-a]isoquinoline-2-carboxamide] | 100 to 1000 nM
11 | COc1cc2c(cc1OCCN(C)C)-c1cc(C(=O)N[C@@H](CO)Cc3c[nH]c4ccccc34)c(-c3cccc(F)c3)n1CC2 [Example 39, (R)-9-(2-(dimethylamino)ethoxy)-3-(3-fluorophenyl)-N-(1-hydroxy-3-(1H-indol-3-yl)propan-2-yl)-8-methoxy-5,6-dihydropyrrolo[2,1-a]isoquinoline-2-carboxamide] | 100 to 1000 nM

The next lines start with the values.

Row | IC50 | Compound
12 | < 100 nM | COc1cc2c(cc1OC(C)C)-c1cc(C(=O)N[C@@H](CO)Cc3c[nH]c4ccccc34)c(C(=O)c3ccccc3)n1CC2 [Example 29, (R)-3-benzoyl-N-(1-hydroxy-3-(1H-indol-3-yl)propan-2-yl)-9-isopropoxy-8-methoxy-5,6-dihydropyrrolo[2,1-a]isoquinoline-2-carboxamide]
13 | < 100 nM | COc1cc2c(cc1OCC(O)CO)-c1cc(C(=O)N[C@@H](CO)Cc3c[nH]c4ccccc34)c(-c3cccs3)n1CC2 (stereo partly drawn) [Example 40, 9-(2,3-dihydroxypropoxy)-N—((R)-1-hydroxy-3-(1H-indol-3-yl)propan-2-yl)-8-methoxy-3-(thiophen-2-yl)-5,6-dihydropyrrolo[2,1-a]isoquinoline-2-carboxamide]
14 | < 100 nM | COc1cc2c(cc1OC)-c1cc(C(=O)N[C@@H](CO)Cc3c[nH]c4ccccc34)c(-c3cccc(F)c3)n1CC2 [Example 10, (R)-3-(3-fluorophenyl)-N-(1-hydroxy-3-(1H-indol-3-yl)propan-2-yl)-8,9-dimethoxy-5,6-dihydropyrrolo[2,1-a]isoquinoline-2-carboxamide]
15 | < 100 nM | COc1cc2c(cc1OC(C)C)-c1cc(C(=O)N[C@@H](CO)Cc3c[nH]c4ccccc34)c(C=C(C)C)n1CC2 [Example 23, (R)—N-(1-hydroxy-3-(1H-indol-3-yl)propan-2-yl)-9-isopropoxy-8-methoxy-3-(2-methylprop-1-enyl)-5,6-dihydropyrrolo[2,1-a]isoquinoline-2-carboxamide]
16 | < 100 nM | COc1cc2c(cc1OC)-c1cc(C(=O)N[C@@H](CO)Cc3c[nH]c4ccccc34)c(-c3cccs3)n1CC2 [Example 7, (R)—N-(1-hydroxy-3-(1H-indol-3-yl)propan-2-yl)-8,9-dimethoxy-3-(thiophen-2-yl)-5,6-dihydropyrrolo[2,1-a]isoquinoline-2-carboxamide]
17 | < 100 nM | COc1ccc(-c2c(C(=O)N[C@@H](CO)Cc3c[nH]c4ccccc34)cc3n2CCc2cc(OC)c(OC)cc2-3)cc1 [Example 8, (R)—N-(1-hydroxy-3-(1H-indol-3-yl)propan-2-yl)-8,9-dimethoxy-3-(4-methoxyphenyl)-5,6-dihydropyrrolo[2,1-a]isoquinoline-2-carboxamide]
18 | < 100 nM | COc1cc2c(cc1OCc1ccccc1)-c1cc(C(=O)N[C@@H](CO)Cc3c[nH]c4ccccc34)c(-c3cccc(F)c3)n1CC2 [Example 34, (R)-9-(benzyloxy)-3-(3-fluorophenyl)-N-(1-hydroxy-3-(1H-indol-3-yl)propan-2-yl)-8-methoxy-5,6-dihydropyrrolo[2,1-a]isoquinoline-2-carboxamide]
19 | < 100 nM | COc1cc2c(cc1OCC1CC1)-c1cc(C(=O)N[C@@H](CO)Cc3c[nH]c4ccccc34)c(-c3cccc(F)c3)n1CC2 [Example 36, (R)-9-(cyclopropylmethoxy)-3-(3-fluorophenyl)-N-(1-hydroxy-3-(1H-indol-3-yl)propan-2-yl)-8-methoxy-5,6-dihydropyrrolo[2,1-a]isoquinoline-2-carboxamide]
20 | < 100 nM | COc1cc2c(cc1-c1cncnc1)-c1cc(C(=O)N[C@@H](CO)Cc3c[nH]c4ccccc34)c(-c3cccs3)n1CC2 [Example 49, (R)—N-(1-hydroxy-3-(1H-indol-3-yl)propan-2-yl)-8-methoxy-9-(pyrimidin-5-yl)-3-(thiophen-2-yl)-5,6-dihydropyrrolo[2,1-a]isoquinoline-2-carboxamide]
21 | < 100 nM | COc1cc2c(cc1-c1cnn(C)c1)-c1cc(C(=O)N[C@@H](CO)Cc3c[nH]c4ccccc34)c(-c3cccc(F)c3)n1CC2 [Example 52, (R)-3-(3-fluorophenyl)-N-(1-hydroxy-3-(1H-indol-3-yl)propan-2-yl)-8-methoxy-9-(1-methyl-1H-pyrazol-4-yl)-5,6-dihydropyrrolo[2,1-a]isoquinoline-2-carboxamide]
22 | < 100 nM | COc1ccccc1-c1c(C(=O)N[C@@H](CO)Cc2c[nH]c3ccccc23)nc2n1CCc1cc(OC)c(OC)nc1-2 [Example 70, N—((R)-1-hydroxy-3-(1H-indol-3-yl)propan-2-yl)-8,9-dimethoxy-3-(2-methoxyphenyl)-5,6-dihydroimidazo[1,2-h][1,7]naphthyridine-2-carboxamide]
